These results are taken from patent publication US4075340A, “Thieno [2,3-C] pyridine derivatives and therapeutic composition containing same” (Parcor, priority 1975, dated 1978).

Counter-ions that a name gives are not always drawn.

The test system of series [1] is blood platelet aggregation. Description: Inhibiting activity on blood platelet aggregation (adenosine diphosphate induced, turbidimetric assay). The note with it: rat plasma, animals administered 100 mg/kg, read-out: percent inhibition on blood platelet aggregation. In kind it is in vivo. The method, then: Rat plasma, prepared to contain 600,000+20,000 blood platelets per mm3 is normally cloudy. Addition of adenosine diphosphate induces blood platelet aggregation and, thus an increase of the light transmission. When the same test is effected with a plasma prepared from the blood of an animal which has been administered 100 mg/kg of a derivative having an inhibiting effect on blood platelet aggregation, there is no aggregation of the blood platelets and the serum remains cloudy. The turbidimetric assay effected with a spectrophotometer provides a measure of the inhibiting activities of the test derivatives on blood platelet aggregation.

A short description of series [2]: acute toxicity, LD50 /24 hrs/kg body weight, intravenous route, method according to Miller and Tainter. The note with it: in vivo.

Take `Clc1ccc(CN2CCc3ccsc3C2)cc1` [Derivative No. 21, 6-p.chlorobenzyl-4,5,6,7-tetrahydro-thieno[2,3-c]pyridine, hydrochloride]: the inhibition at 100 mg/kg in series [1] amounted to 91%. This compound returned an LD50 at 24 h in series [2] of 55 mg/kg.

As for `Cc1ccc(CN2CCc3ccsc3C2)cc1` [Derivative No. 24, 6-p.methylbenzyl-4,5,6,7-tetrahydro-thieno[2,3-c]pyridine, hydrochloride], the inhibition at 100 mg/kg in series [1] stood at 78%. In series [2], this compound returned a 50% lethal dose (LD50) at 24 h of 45 mg/kg.

As to `OC(CN1CCc2ccsc2C1)c1ccc(Cl)cc1` (centres unmarked) [Derivative No. 27, 6-(2-hydroxy-2-p.chlorophenyl-ethyl)-4,5,6,7-tetrahydro-thieno[2,3-c]pyridine], in series [1], the inhibition at 100 mg/kg turned out to be 86%. Further, the median lethal dose (LD50) at 24 h in series [2] is 45 mg/kg.

For `OC(CN1CCc2ccsc2C1)c1ccc(F)cc1` (centres unmarked) [Derivative No. 29, 6-(2-hydroxy-2-p.fluorophenyl-ethyl)-4,5,6,7-tetrahydro-thieno[2,3-c]pyridine], in series [1], the inhibition at 100 mg/kg amounted to 89%. Moreover, the median lethal dose (LD50) at 24 h in series [2] was 60 mg/kg.

By inhibition is commonly meant the change of the read-out against control, counted positive when it falls. In general, LD50 refers to the dose expected to kill half of the subjects tested. Read a high LD50 as lower toxicity.
